The target in one assay is T1, Human DNMT3b/3L (Homo sapiens, UniProt Q9UBC3).
T1 construct: truncated 3b (catalytic domain)
The experiment in a line: DNMT inhibition assay (3H-SAM filter-binding) against DNMT3b/3L. The assay is classed as biochemical. To be noted: read-out: IC50 against DNMT 3b/3L. As to the method:
DNMT Assays Used for Examples 1-114
Human DNMT3b/3L was coexpressed using truncated 3b (catalytic domain) and 3L (DNA binding domain) at GSK. Human full-length DNMT1 enzyme purchased from BPS Biosciences. Poly(dIdC) DNA (Sigma) was used at 0.002 mg/mL. Tritiated SAM (Perkin Elmer) was used at 500 nM. DNA, DNMT enzyme, and inhibitors were mixed with assay buffer (20 mM Tris pH8, 5% glycerol, 1 mM EDTA, 100 μg/mL BSA, 1 mM DTT, 50 mM NaCl) and pre-incubated without SAM for 30 min. H3 SAM was then added to initiate the methylation reaction which continues at 37° C. for 1 h. Reaction mixture was then transferred to a filter plate (Millipore Multiscreen HTS DE), then washed with 50 mM H2PO4 and 95% Ethanol. Scintillation counts were measured on the Perkin Elmer Microbeta scintillation counter.
DNMT Assays Used for Examples 115-120
DNMT enzymes were produced by GlaxoSmithKline. Human DNMT3b/3L was coexpressed using truncated 3b (catalytic domain) and 3L (DNA binding domain). DNMT1 was human, full-length protein. 3H-SAM was purchased from Perkin Elmer. Custon DNA oligonucleotide substrates were purchased from Integrated DNA technologies.
28-mer DNA Oligonucleotide Duplex (for DNMT3b/3L)
DNMT enzyme was preincubated with compound for 1 hr at RT, after which SAM and DNA were added to initiate the methylation reaction. The methylation reaction was quenched after 20 min upon the addition of >100 fold excess non-radioactive SAM. The quenched reaction mixture (80%) was transferred to a DEAE filter binding plate (Millipore Multiscreen HTS DE), washed with 3 volumes of 50 mM phosphate buffer and dried. Scintillation cocktail (MicroScint-20) was added to the plate and radioactivity (3H-DNA) was measured using a Perkin Elmer TopCount scintillation counter.
Final reagent concentrations (prior to quench) consisted of the following:
DNMT3b/3L (10 nM), 200 nM DNA, 200 nM 3H-SAM in 20 mM Tris (pH 8), 1 mM DTT, 1 mM EDTA, 25 mM NaCl, 1 mM CHAPS and 2% DMSO.

The target of the next assay is T2, Human full-length DNMT1 (Homo sapiens, UniProt P26358).
T2 construct: Human full-length DNMT1 enzyme purchased from BPS Biosciences; purchased BPS Biosciences
T2 sequence (P26358 whole entry): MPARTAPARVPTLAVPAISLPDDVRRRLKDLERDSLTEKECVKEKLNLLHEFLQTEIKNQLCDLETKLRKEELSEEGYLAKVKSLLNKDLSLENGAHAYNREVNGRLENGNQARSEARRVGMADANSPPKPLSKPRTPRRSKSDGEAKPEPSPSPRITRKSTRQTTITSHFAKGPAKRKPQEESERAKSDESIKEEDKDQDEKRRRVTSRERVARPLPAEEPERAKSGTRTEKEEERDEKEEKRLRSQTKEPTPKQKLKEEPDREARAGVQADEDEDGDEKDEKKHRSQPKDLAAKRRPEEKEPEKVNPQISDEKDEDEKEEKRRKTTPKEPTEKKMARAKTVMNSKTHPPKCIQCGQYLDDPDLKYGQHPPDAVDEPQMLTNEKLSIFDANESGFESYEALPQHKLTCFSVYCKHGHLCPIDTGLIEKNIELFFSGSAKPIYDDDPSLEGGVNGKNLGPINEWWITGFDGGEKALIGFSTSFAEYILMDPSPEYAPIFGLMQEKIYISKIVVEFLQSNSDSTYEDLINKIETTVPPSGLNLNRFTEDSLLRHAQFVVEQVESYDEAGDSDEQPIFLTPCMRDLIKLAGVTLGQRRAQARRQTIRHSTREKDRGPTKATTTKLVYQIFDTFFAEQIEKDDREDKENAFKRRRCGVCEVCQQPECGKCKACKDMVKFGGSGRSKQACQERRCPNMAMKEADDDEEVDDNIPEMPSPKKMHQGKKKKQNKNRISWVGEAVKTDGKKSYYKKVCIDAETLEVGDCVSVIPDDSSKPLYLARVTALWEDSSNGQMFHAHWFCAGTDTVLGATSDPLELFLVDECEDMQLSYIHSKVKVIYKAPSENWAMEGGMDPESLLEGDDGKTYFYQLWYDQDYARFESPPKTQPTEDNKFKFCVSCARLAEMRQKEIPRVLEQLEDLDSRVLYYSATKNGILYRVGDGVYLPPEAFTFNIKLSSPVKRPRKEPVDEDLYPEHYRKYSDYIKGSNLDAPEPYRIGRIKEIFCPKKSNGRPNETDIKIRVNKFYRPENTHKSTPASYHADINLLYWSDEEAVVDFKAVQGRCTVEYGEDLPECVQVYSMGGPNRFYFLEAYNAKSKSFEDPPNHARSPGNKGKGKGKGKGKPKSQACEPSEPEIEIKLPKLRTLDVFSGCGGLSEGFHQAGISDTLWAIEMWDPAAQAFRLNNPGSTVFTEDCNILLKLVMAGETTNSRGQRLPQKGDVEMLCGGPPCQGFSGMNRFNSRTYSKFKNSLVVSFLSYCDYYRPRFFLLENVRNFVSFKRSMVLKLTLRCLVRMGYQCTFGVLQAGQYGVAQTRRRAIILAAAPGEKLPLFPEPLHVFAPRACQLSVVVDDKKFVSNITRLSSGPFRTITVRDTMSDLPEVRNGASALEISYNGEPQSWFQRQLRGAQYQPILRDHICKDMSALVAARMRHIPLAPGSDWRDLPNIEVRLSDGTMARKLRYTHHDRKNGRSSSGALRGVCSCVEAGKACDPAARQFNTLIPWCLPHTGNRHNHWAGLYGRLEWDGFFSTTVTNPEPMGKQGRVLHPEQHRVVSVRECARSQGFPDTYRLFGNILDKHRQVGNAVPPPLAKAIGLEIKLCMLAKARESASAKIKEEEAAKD
The experiment in a line: DNMT inhibition assay (3H-SAM filter-binding) against DNMT1. Format: biochemical.

Where [1] appears, read: at least one experimental run or average of several runs, Examples 1-114 and 115-120 use different protocols.

Several values for one entry are separate records, joined by “and”; a condition that tells them apart may be missing. Identical values can stand only once. Like-named read-outs stand apart in the source and are kept apart here.

Regarding `S=C(NCc1ccccc1C1CCCNC1)NCc1ccnc2[nH]ccc12` (centres unmarked) [Example 116, 1-((1H-pyrrolo[2,3-b]pyridin-4-yl)methyl)-3-(2-(piperidin-3-yl)benzyl)thiourea], the IC50 is at most 10 µM at Human DNMT3b/3L (setting [1]) and at most 100 µM on Human full-length DNMT1 (setting [1]).
As to `NC(CCCCNC(=S)NCc1ccnc2[nH]ccc12)C(=O)O` (centres unmarked) [Example 46, 6-(3-((1H-pyrrolo[2,3-b]pyridin-4-yl)methyl)thioureido)-2-aminohexanoic acid], the IC50 at Human full-length DNMT1 (setting [1]) lay in the range of 19.1 to 300 µM.
With `C=CC(=O)Nc1cc(CNC(=S)NCc2ccnc3[nH]ccc23)cc(C(F)(F)F)c1` [Example 35, N-(3-((3-((1H-pyrrolo[2,3-b]pyridin-4-yl)methyl)thioureido)methyl)-5-(trifluoromethyl)phenyl)acrylamide], the IC50 on Human DNMT3b/3L (setting [1]) was at most 20 µM; on Human full-length DNMT1 (setting [1]), 19.1 to 300 µM.
Regarding `Nc1ccc([N+](=O)[O-])cc1CNC(=S)NCc1ccnc2[nH]ccc12` [Example 30, 1-((1H-pyrrolo[2,3-b]pyridin-4-yl)methyl)-3-(2-amino-5-nitrobenzyl)thiourea], the IC50 on Human full-length DNMT1 (setting [1]) is 19.1 to 300 µM and ≤ 100 µM.
For `O=C(C#Cc1ccc2c(c1)OCO2)NCCNC(=S)NCc1ccnc2[nH]ccc12` [Example 93, N-(2-(3-((1H-pyrrolo[2,3-b]pyridin-4-yl)methyl)thioureido)ethyl)-3-(benzo[d][1,3]dioxol-5-yl)propiolamide], on Human full-length DNMT1 (setting [1]), the IC50 was 19.1 to 300 µM and ≤ 100 µM.
`COCC#CC(=O)Nc1cccc(CNC(=S)NCc2ccnc3[nH]ccc23)c1` [Example 41, N-(3-((3-((1H-pyrrolo[2,3-b]pyridin-4-yl)methyl)thioureido)methyl)phenyl)-4-methoxybut-2-ynamide]: the IC50 at Human DNMT3b/3L is at most 1 µM; on Human full-length DNMT1 (read-out: IC50 against DNMT 1) it was 19.1 to 300 µM and ≤ 200 µM.
`O=C(C#Cc1ccc(Cl)cc1)NCCNC(=S)NCc1ccnc2[nH]ccc12` [Example 89, N-(2-(3-((1H-pyrrolo[2,3-b]pyridin-4-yl)methyl)thioureido)ethyl)-3-(4-chlorophenyl)propiolamide]: at Human full-length DNMT1 (setting [1]), the IC50 was 19.1 to 300 µM and ≤ 200 µM.
Take `CC#CC(=O)Nc1ccccc1CNS(=O)(=O)NCc1ccnc2[nH]ccc12` [Example 42, N-(2-(((N-((1H-pyrrolo[2,3-b]pyridin-4-yl)methyl)sulfamoyl)amino)methyl)phenyl)but-2-ynamide]: the IC50 at Human DNMT3b/3L (setting [1]) was at most 20 µM; on Human full-length DNMT1 (setting [1]) it was 19.1 to 300 µM.
On Human full-length DNMT1 (setting [1]), `Nc1ccccc1CNC(=S)NCc1ccnc2[nH]ccc12` [Example 26, 1-((1H-pyrrolo[2,3-b]pyridin-4-yl)methyl)-3-(2-aminobenzyl)thiourea] yielded an IC50 of 19.1 to 300 µM.
In the case of `NCC(=O)Nc1ccccc1CNC(=S)NCc1ccnc2[nH]ccc12` [Example 114, N-(2-((3-((1H-Pyrrolo[2,3-b]pyridin-4-yl)methyl)thioureido)methyl)phenyl)-2-aminoacetamide], at Human full-length DNMT1 (setting [1]), the IC50 was 19.1 to 300 µM and ≤ 200 µM.
In the case of `O=C(C#Cc1ccc([N+](=O)[O-])cc1)NCCNC(=S)NCc1ccnc2[nH]ccc12` [Example 87, N-(2-(3-((1H-pyrrolo[2,3-b]pyridin-4-yl)methyl)thioureido)ethyl)-3-(4-nitrophenyl)propiolamide], the IC50 is at most 1 µM at Human DNMT3b/3L (setting [1]); 19.1 to 300 µM and ≤ 100 µM on Human full-length DNMT1 (setting [1]).
With `O=C(C#Cc1ccc(F)cc1)NCCNC(=S)NCc1ccnc2[nH]ccc12` [Example 85, N-(2-(3-((1H-pyrrolo[2,3-b]pyridin-4-yl)methyl)thioureido)ethyl)-3-(4-fluorophenyl)propiolamide], the IC50 on Human full-length DNMT1 (setting [1]) is 19.1 to 300 µM and ≤ 200 µM.
Turning to `COc1ccc(C#CC(=O)NCCNC(=S)NCc2ccnc3[nH]ccc23)cc1OC` [Example 92, N-(2-(3-((1H-pyrrolo[2,3-b]pyridin-4-yl)methyl)thioureido)ethyl)-3-(3,4-dimethoxyphenyl)propiolamide], the IC50 at Human full-length DNMT1 (setting [1]) is 19.1 to 300 µM and ≤ 100 µM.
Consider `C=CC(=O)Nc1ccc([N+](=O)[O-])cc1CNC(=S)NCc1ccnc2[nH]ccc12` [Example 110, N-(2-((3-((1H-Pyrrolo[2,3-b]pyridin-4-yl)methyl)thioureido)methyl)-4-nitrophenyl)acrylamide], for which, at Human full-length DNMT1 (setting [1]), the IC50 was 19.1 to 300 µM.
Consider `O=C(C#Cc1cccc(F)c1)NCCNC(=S)NCc1ccnc2[nH]ccc12` [Example 86, N-(2-(3-((1H-pyrrolo[2,3-b]pyridin-4-yl)methyl)thioureido)ethyl)-3-(3-fluorophenyl)propiolamide], for which the IC50 at Human full-length DNMT1 (setting [1]) was 19.1 to 300 µM and 75 µM and ≤ 100 µM.
For the compound `COc1ccc(C#CC(=O)NCCNC(=S)NCc2ccnc3[nH]ccc23)cc1` [Example 11, N-(2-(3-((1H-Pyrrolo[2,3-b]pyridin-4-yl)methyl)thioureido)ethyl)-3-(4-methoxyphenyl)propiolamide], on Human DNMT3b/3L, the IC50 is at most 10 µM.
Take `CC#CC(=O)Nc1cc(Cl)ccc1CNC(=S)NCc1ccnc2[nH]ccc12` [Example 82, N-(2-((3-((1H-pyrrolo[2,3-b]pyridin-4-yl)methyl)thioureido)methyl)-5-chlorophenyl)but-2-ynamide]: on Human DNMT3b/3L (setting [1]), the IC50 is at most 1 µM.
With `C=CC(=O)Nc1ccc(F)c(CNC(=S)NCc2ccnc3[nH]ccc23)c1` [Example 74, N-(3-((3-((1H-pyrrolo[2,3-b]pyridin-4-yl)methyl)thioureido)methyl)-4-fluorophenyl)acrylamide], the IC50 at Human DNMT3b/3L (setting [1]) was at most 10 µM.
Consider `O=C(C#Cc1ccccc1)N1CCCC(CNS(=O)(=O)NCc2ccnc3[nH]ccc23)C1` (centres unmarked) [Example 48, 1-((1H-pyrrolo[2,3-b]pyridin-4-yl)methyl)-3-((1-(3-phenylpropioloyl)piperidin-3-yl)methyl)sulfuric diamide], for which, on Human DNMT3b/3L, the IC50 is at most 1 µM.
Compound `Cc1ccc(C#CC(=O)NCCNC(=S)NCc2ccnc3[nH]ccc23)cc1` [Example 88, N-(2-(3-((1H-pyrrolo[2,3-b]pyridin-4-yl)methyl)thioureido)ethyl)-3-(p-tolyl)propiolamide] showed an IC50 on Human full-length DNMT1 (setting [1]) of 19.1 to 300 µM.
With `O=C(C#Cc1ccccc1)NCCCC(=O)NCc1ccnc2[nH]ccc12` [Example 18, N-((1H-pyrrolo[2,3-b]pyridin-4-yl)methyl)-4-(3-phenylpropiolamido)butanamide], at Human DNMT3b/3L, the IC50 was at most 1 µM.

The record behind these values is patent US9174984B2, “Chemical compounds” (GlaxoSmithKline Intellectual Property (No. 2) Limited, priority 2011, dated 2015).
